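In this assay, cells in 96-well plates receive the compound at five concentrations for 48 hours. Endpoints are linearly interpolated between the surrounding concentrations. TGI marks complete inhibition of growth.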 Where a SMILES comes first, the peptide text is derived from it. The star is where a group is joined. Boc = CC(C)(C)OC(=O)*
What was measured:
Experiment in all cases: NCI-60 cell line screen, 48 h
SR leukemia = tested on: SR leukemia
HT29 colon = tested on: HT29 colon
MCF7 breast = tested on: MCF7 breast
SNB-19 CNS = tested on: SNB-19 CNS
UACC-62 melanoma = tested on: UACC-62 melanoma
COLO 205 colon = tested on: COLO 205 colon
SK-MEL-28 melanoma = tested on: SK-MEL-28 melanoma
MDA-N = tested on: MDA-N
HOP-62 NSCLC = tested on: HOP-62 NSCLC
UACC-257 melanoma = tested on: UACC-257 melanoma
SF-539 CNS = tested on: SF-539 CNS

Structure (SMILES)	TGI (SR leukemia)	TGI (HT29 colon)	TGI (MCF7 breast)	TGI (SNB-19 CNS)	TGI (UACC-62 melanoma)	TGI (COLO 205 colon)	TGI (SK-MEL-28 melanoma)	TGI (MDA-N)	TGI (HOP-62 NSCLC)	TGI (UACC-257 melanoma)	TGI (SF-539 CNS)
COC(=O)C(CCSC)NC(=O)Cc1ccc(C(=O)c2ccccc2)cc1 (stereo unspecified)	> 100 µM	65.5 µM	> 100 µM	> 100 µM	> 100 µM	> 100 µM	> 100 µM	35.1 µM	> 100 µM	> 100 µM	
COC(=O)C(Cc1c[nH]c2ccccc12)NC(=O)C(Cc1c[nH]c2ccccc12)NC(=O)C(Cc1c[nH]c2ccccc12)NC(=O)C(Cc1c[nH]c2ccccc12)NC(=O)C(Cc1c[nH]c2ccccc12)NC(=O)C(Cc1c[nH]c2ccccc12)NC(=O)C(Cc1c[nH]c2ccccc12)NC(=O)C(Cc1c[nH]c2ccccc12)NC(=O)OC(C)(C)C (stereo unspecified) (Boc-WWWWWWWW-OMe; configuration not given here)	> 100 µM	> 100 µM	> 100 µM	> 100 µM	> 100 µM		> 100 µM	> 100 µM	> 100 µM	> 100 µM	
O=C1CC(c2ccccc2)n2cccc21 (stereo unspecified)	> 100 µM	> 100 µM	> 100 µM	> 100 µM	> 100 µM	> 100 µM	> 100 µM		> 100 µM	> 100 µM	> 100 µM
O=c1/c(=C/c2ccc(-c3ccc(Cl)cc3Cl)o2)sc2n1[C@@H](c1ccc(Cl)cc1)C=C(c1cc(F)c(Cl)cc1Cl)N=2		> 100 µM	> 100 µM	> 100 µM	> 100 µM	> 100 µM	> 100 µM	> 100 µM	34.6 µM	> 100 µM	> 100 µM
CCCC(=O)OC1C(CO)OC(n2cc(F)c(=O)[nH]c2=O)C1F (stereo unspecified)	> 100 µM	> 100 µM	> 100 µM		> 100 µM	> 100 µM	> 100 µM		> 100 µM	> 100 µM	> 100 µM
Nc1nc2c3nc(Nc4ccccc4)sc3nc(=O)n2c2sc(Nc3ccccc3)nc12	> 100 µM	> 100 µM		> 100 µM	> 100 µM	> 100 µM	> 100 µM		> 100 µM	> 100 µM	> 100 µM
COc1ccc(SCc2cc(OCc3ccccc3)c(OCc3ccccc3)c(OCc3ccccc3)c2)cc1				3.19 µM		8.21 µM	3.52 µM	3.29 µM		3.09 µM	3.45 µM
C=C1CCC([N+](=O)[O-])[C@](C)(N=O)CC[C@@H]2C1CC2(C)C (stereo partly specified)	> 100 µM	45.4 µM	39.6 µM	77.9 µM		60.5 µM		> 100 µM	> 100 µM	46.2 µM	
C=CCc1cccc2cc(C(=O)Nc3ccccn3)c(=N)oc12	> 100 µM	> 100 µM	> 100 µM	> 100 µM	> 100 µM	> 100 µM	> 100 µM		> 100 µM	> 100 µM	> 100 µM
O=C1c2ccc(O)c(O)c2C(=O)c2c(O)ccc(O)c21	93.7 µM	> 100 µM		85.3 µM	41.6 µM	48.5 µM	> 100 µM		65.4 µM	49.3 µM	49.2 µM
CCN1CCC(O)(c2ccc(Cl)cc2)C(C(=O)c2ccc(Cl)cc2)C1 (stereo unspecified)	> 100 µM	> 100 µM		> 100 µM	> 100 µM	> 100 µM	> 100 µM			> 100 µM	> 100 µM
COc1ccccc1C(=O)c1c(NCc2ccccc2)c(=O)c1=O		> 100 µM		> 100 µM	> 100 µM	98.7 µM	35.8 µM	> 100 µM	> 100 µM	> 100 µM	
CC(=O)O[C@H]1[C@H](OC(=O)CC(C)(O)CC(=O)O)C[C@]2(C)C3=C(CCC2C1(C)C)[C@]1(C)CC[C@H]([C@H]2CC[C@H](C(C)(C)O)OC2O)[C@@]1(C)[C@@H](O)C3 (stereo partly specified)	60.1 µM	30.2 µM	45.8 µM	33.6 µM	37 µM		31.5 µM	34.3 µM	32.7 µM	35.4 µM	
COc1ccc2c(c1)CCc1c-2n(CCN2CCCCC2)c2ccc(OC)cc12	> 100 µM	> 100 µM	> 100 µM	> 100 µM	> 100 µM	> 100 µM	> 100 µM	> 100 µM	> 100 µM	> 100 µM	
C=C1C2C[C@@H]3O[C@H]4C[C@H]5O[C@@]6(C[C@@H]7O[C@]8(C[C@H](C)[C@@H]9O[C@@H]%10CC(CO)O[C@@H]%10C[C@@H]9O8)C[C@H](C)[C@@H]7O6)C[C@H]5O[C@H]4[C@H](C)[C@H]3OC(=O)C[C@H]3CC[C@@H]4OC5[C@H]6O[C@]7(CC[C@H]8CC(=C)[C@H](CC[C@@H](C[C@H]1C)O2)O8)CC6O[C@@H]5[C@@H](O7)[C@H]4O3 (stereo partly specified)	> 1 µM			> 1 µM	> 1 µM	0.000322 µM			> 1 µM	> 1 µM	
CCOC(=O)c1ccc(N=c2sc3ccccc3nc2Nc2ccc(C(=O)OCC)cc2)cc1	> 100 µM	> 100 µM		> 100 µM	> 100 µM	> 100 µM	> 100 µM	> 100 µM	> 100 µM	> 100 µM	> 100 µM
C=CC(Cl)(CBr)CCC(Br)C(C)(C)Cl (stereo unspecified)		28.9 µM	20.1 µM	32.8 µM	30.5 µM	29.5 µM	33.1 µM	32.4 µM	30.6 µM	27.5 µM	30.5 µM
OC(c1cc(C23CC4CC(CC(C4)C2)C3)nc2c(Cl)cc(Cl)cc12)C1CCCCN1 (stereo unspecified)	2.84 µM	3.04 µM	2.9 µM		3.16 µM				2.97 µM	3.53 µM	3.22 µM
COC(=O)C1(C)C=CC(=O)C2(C)C1C(O)C1OC3CC(c4ccoc4)C(C)=C3C1(C)C2CC(=O)O (stereo unspecified)			> 100 µM	> 100 µM	> 100 µM	> 100 µM	> 100 µM	> 100 µM		> 100 µM	> 100 µM
O=C1C(c2c(O)[nH]c3ccc(Br)cc23)=Nc2ccccc21	> 100 µM	15 µM	3.72 µM	28.1 µM	28 µM	31.4 µM	> 100 µM	34.8 µM	32.6 µM	57.3 µM	
OCCNCNc1nc(NCNCCO)nc(N(CNCCO)CNCCO)n1		45.8 µM	> 78.9 µM	38.1 µM	35.6 µM	30.8 µM	52.6 µM	38.4 µM	43.2 µM	40 µM	41.3 µM

Reference: PubChem BioAssay (NCI)
